Read-outs that look alike come from different tables or passages of the source.
Key:
Test in all cases: FGF-induced resistance, inhibition of BrdU incorporation
Format in all cases: cell-based
Human colon HT-29 = conditions: read-out: Drug concentration needed to produce 50% inhibition
Experimental: (§1) Prior to drug treatment, cells were incubated for 4 days with tumor CM or with r-aFGF ad/or r-bFGF-containing medium, supplemented with 1% FBS (final protein concentration adjusted to 2 mg/ml). The medium was renewed every other day.
(§2) The antiproliferative drug effect in histocultures was measured as inhibition of ^3H-thymidine incorporation quantified by autoradiography (Yen, W. C. et al. (1996) Pharm. Res. 13:1305-1312) and, for monolayers, as inhibition of BrdU incorporation or as reduction of total proteins by the sulforhodamine B assay (Au, J. L.-S. et al. (1998) Cancer Res. 58:2141-2148). For the latter, the two assays yielded qualitatively similar results. Cell kill induced by 96-hour drug treatment was monitored by the release of LDH into the culture medium. LDH activity was monitored by the conversion of tetrazolium to formazan (detected at 490 nm).
(§3) The experimental conditions are described briefly below. Cells were pretreated with human recombinant r-aFGF and/or r-bFGF for 96 hours and then with drugs for 96 hours. For the studies on cells derived from the human prostate, lung, pharynx, colon and breast cancer cells, the drug effect was determined by the inhibition of BrdU incorporation. For the study on the human leukemic cells, the drug effect was measured by the MTT assay, which measures the number of metabolically active cells (Alley, M. C. et al (1988) Cancer Res 48:589-601).

Rat prostate MAT-LyLu = conditions: read-out: Drug concentration needed to produce 50% inhibition
Experimental: as §1, §2, §3

Human lung A459 = conditions: read-out: Drug concentration needed to produce 50% inhibition
Experimental: as §1, §2, §3

[1] = system: Human breast BC19 (subline of MCF7 transfected with mdr1); conditions: read-out: Drug concentration needed to produce 50% inhibition
Experimental: as §1, §2, §3

Human prostate PC3 = conditions: Homo sapiens, read-out: Drug concentration needed to produce 50% inhibition
Experimental: as §1, §2, §3

Human breast MCF7 = conditions: read-out: Drug concentration needed to produce 50% inhibition
Experimental: as §1, §2, §3

With `O=c1[nH]cc(F)c(=O)[nH]1` [5-Fluorouracil] the IC50 (Human colon HT-29; HT-29, r-aFGF 0 ng/ml) was 1640 nM, the IC50 (Human colon HT-29; HT-29, r-aFGF 1 ng/ml) was 1620 nM and the IC50 (Human colon HT-29; HT-29, r-aFGF 10 ng/ml) was 1580 nM. It also gave an IC50 (Human colon HT-29; HT-29, r-aFGF 50 ng/ml) of 1630 nM, an IC50 (Human colon HT-29; HT-29, r-bFGF 0 ng/ml) of 2090 nM and an IC50 (Human colon HT-29; HT-29, r-bFGF 1 ng/ml) of 2360 nM. The IC50 (Human colon HT-29; HT-29, r-bFGF 10 ng/ml) was 2230 nM, the IC50 (Human colon HT-29; HT-29, r-bFGF 50 ng/ml) was 2250 nM and the IC50 (Rat prostate MAT-LyLu; r-bFGF 0 ng/ml) was 746 nM. It also gave an IC50 (Rat prostate MAT-LyLu; r-bFGF 1 ng/ml) of 1050 nM, an IC50 (Rat prostate MAT-LyLu; r-bFGF 10 ng/ml) of 1990 nM and an IC50 (Rat prostate MAT-LyLu; r-bFGF 50 ng/ml) of 3250 nM. It also gave an IC50 (Human lung A459; A459, 96 h, r-aFGF + r-bFGF 0 ng/ml) of 862 nM, an IC50 (Human lung A459; A459, 96 h, r-aFGF + r-bFGF 0.04 ± 1 ng/ml) of 908 nM and an IC50 (Human lung A459; A459, 96 h, r-aFGF + r-bFGF 0.08 ± 1 ng/ml) of 995 nM. It also gave an IC50 (Human lung A459; A459, 96 h, r-aFGF + r-bFGF 0.16 ± 1 ng/ml) of 1010 nM, an IC50 (Human lung A459; A459, 96 h, r-aFGF + r-bFGF 0.32 ± 1 ng/ml) of 1620 nM and an IC50 (Human lung A459; A459, 96 h, r-aFGF + r-bFGF 0.64 ± 1 ng/ml) of 2090 nM. It also gave an IC50 (Human lung A459; A459, 96 h, r-aFGF + r-bFGF 1 ± 1 ng/ml) of 3630 nM, an IC50 (Human lung A459; A459, r-bFGF 0 ng/ml) of 870 nM and an IC50 (Human lung A459; A459, r-bFGF 1 ng/ml) of 1010 nM. For the same compound, the IC50 (Human lung A459; A459, r-bFGF 10 ng/ml) was 1380 nM, the IC50 (Human lung A459; A459, r-bFGF 50 ng/ml) was 1710 nM and the IC50 ([1]; r-bFGF 0 ng/ml) was 975 nM. For the same compound, the IC50 ([1]; r-bFGF 0.01 ng/ml) was 1070 nM, the IC50 ([1]; r-bFGF 0.1 ng/ml) was 1370 nM and the IC50 ([1]; r-bFGF 1 ng/ml) was 1510 nM. It also gave an IC50 (Human prostate PC3; 96 h, r-aFGF + r-bFGF 0.04 ± 1 ng/ml) of 761 nM, an IC50 (Human prostate PC3; 96 h, r-aFGF + r-bFGF 0.08 ± 1 ng/ml) of 1150 nM and an IC50 (Human prostate PC3; 96 h, r-aFGF + r-bFGF 0.32 ± 1 ng/ml) of 2540 nM. It also gave an IC50 (Human prostate PC3; 96 h, r-aFGF + r-bFGF 0.64 ± 1 ng/ml) of 3770 nM, an IC50 (Human prostate PC3; 96 h, r-aFGF + r-bFGF 1 ± 1 ng/ml) of 5740 nM and an IC50 (Human prostate PC3; 96 h, r-aFGF + r-bFGF) of 1640 nM. The IC50 (Human prostate PC3; r-aFGF 0 ng/ml) was 810 nM, the IC50 (Human prostate PC3; r-aFGF 1 ng/ml) was 815 nM and the IC50 (Human prostate PC3; r-aFGF 10 ng/ml) was 695 nM. The IC50 (Human prostate PC3; r-aFGF 50 ng/ml) was 732 nM, the IC50 (Human prostate PC3; r-bFGF 0 ng/ml) was 741 nM and the IC50 (Human prostate PC3; r-bFGF 1 ng/ml) was 846 nM. The IC50 (Human prostate PC3; r-bFGF 10 ng/ml) was 2410 nM, the IC50 (Human prostate PC3; r-bFGF 50 ng/ml) was 4300 nM and the IC50 (Human breast MCF7; MCF7, r-bFGF 0 ng/ml) was 991 nM. For the same compound, the IC50 (Human breast MCF7; MCF7, r-bFGF 0.01 ng/ml) was 1030 nM, the IC50 (Human breast MCF7; MCF7, r-bFGF 0.1 ng/ml) was 1370 nM and the IC50 (Human breast MCF7; MCF7, r-bFGF 1 ng/ml) was 1510 nM.

Source: patent US20040010001A1, “Methods and compositions for modulating cell proliferation and cell death” (priority 1999, published 2004)
